Results from patent publication US4492704A, “Quinoline quinones and anti-asthmatic use thereof” (Eli Lilly and Company, priority 1982, dated 1985).
Where two headings read alike, the source gives them in different places.

Assays:
SRS-A release = experiment: Inhibition of SRS-A (leukotriene) release from ovalbumin-challenged sensitized guinea pig lung fragments; type: cell-based; conditions: for inhibition at 10 µM / inhibition at 30 µM / inhibition at 3 µM / inhibition at 1 µM: Cavia porcellus, read-out: Percent Inhibition of SRS-A Release
Protocol: Male, Hartley guinea pigs, usually 1-2 weeks old were sensitized with respect to ovalbumin by intraperitoneal administration of 0.15 ml hyperimmune serum obtained from guinea pigs actively sensitized against ovalbumin. […] Poorly perfused and bloody areas were discarded. Normal lung was cut into 1 mm cubes with a McIlwain tissue chopper, washed with Krebs' solution and divided into 400 mg aliquots. The fragmented tissue was then incubated at 37° C. for 15 minutes in Krebs' solution containing indomethacin to optimize SRS-A release and an appropriate concentration of experimental drug. Antigen (ovalbumin) was then added to make a final concentration of 1×10^-5 g/ml. Fifteen minutes later, the incubation medium was decanted and centrifuged at 3,000 g at 4° C. for 5 minutes. […] Release of SRS-A in the presence of an experimental drug was compared to a control sample and the results expressed as percent inhibition of SRS-A release.

[1] = pKa using 66% aqueous dimethylformamide solution; type: physicochemical
Protocol: The precipitate was then dissolved in a solution of 1 L of water and 50 g of sodium hydroxide and then heated to about 60° for about ten minutes. Slowly, 50 g of sodium dithionite were added with stirring. After the addition, the reaction solution was kept at about 60° for about three hours. An orange precipitate was formed and the reaction was then allowed to cool to room temperature and sodium chloride was added. The orange solid, which was filtered and then dried, weighed 19 g (70% yield).
The preparation of 2-methyl-5-amino-8-hydroxyquinoline follows the procedure outlined in Example 1, except 15.9 g of 2-methyl-8-hydroxyquinoline were used as the starting material. […] The mass spectrum indicated the expected molecular ion at m/e=174. The pKa was 5.00, using 66% aqueous dimethylformamide solution and the apparent molecular weight was 188.

[2] = 1 × 10^-5 M, sensitized guinea pig lung fragments, ovalbumin challenge, indomethacin present
[3] = 3 × 10^-5 M, sensitized guinea pig lung fragments, ovalbumin challenge, indomethacin present
[4] = 3 × 10^-6 M, sensitized guinea pig lung fragments, ovalbumin challenge, indomethacin present
[5] = 1 × 10^-6 M, sensitized guinea pig lung fragments, ovalbumin challenge, indomethacin present

| Molecule | inhibition at 10 µM (SRS-A release; [2]) | inhibition at 30 µM (SRS-A release; [3]) | also measured |
| --- | --- | --- | --- |
| O=C1C(Nc2cccc(C(F)(F)F)c2)=CC(=O)c2ncccc21 [Example 24, 6-(3-triflouromethylanilino)quinoline-5,8-quinone] | 53% | – | – |
| Cc1ccc2c(N)ccc(O)c2n1 [Example 2, 2-methyl-5-amino-8-hydroxyquinoline] | – | – | pKa [1]: 5 |
| O=C1C(Nc2cccc(Cl)c2)=CC(=O)c2ncccc21 [Example 22, 6-(3-chloroanilino)quinoline-5,8-quinone] | 71% | – | – |
| CNC1=CC(=O)c2ncccc2C1=O [6-methylaminoquinoline-5,8-quinone] | 28% | 51% | – |
| COc1ccccc1NC1=CC(=O)c2ncccc2C1=O [6-(2-methoxyanilino)quinoline-5,8-quinone] | – | 38% | inhibition at 3 µM (SRS-A release; [4]): 0% |
| CC(=O)c1cccc(NC2=CC(=O)c3ncccc3C2=O)c1 [Example 25, 6-(3-acetylanilino)quinoline-5,8-quinone] | – | – | inhibition at 3 µM (SRS-A release; [4]): 36% |
| O=C1C(Nc2cccc(Br)c2)=CC(=O)c2ncccc21 [Example 23, 6-(3-bromoanilino)quinoline-5,8-quinone] | 45% | – | – |
| O=C1C(Nc2ccc(O)cc2)=CC(=O)c2ncccc21 [Example 13, 6-(4-hydroxyanilino)quinoline-5,8-quinone] | 58% | – | – |
| COc1cc(N)c2ncccc2c1N [Example 1, 5,8-diamino-6-methoxyquinoline] | – | – | pKa [1]: 5.08 |
| Cc1ccccc1NC1=CC(=O)c2ncccc2C1=O [6-(2-methylanilino)quinoline-5,8-quinone] | – | 80% | inhibition at 3 µM (SRS-A release; [4]): 17% |
| Cc1ccc2c(n1)C(=O)C=C(Nc1ccccc1)C2=O [Example 11, 2-methyl-6-anilinoquinoline-5,8-quinone] | 55% | – | – |
| O=C1C(Nc2ccc(Cl)cc2)=CC(=O)c2ncccc21 [6-(4-chloroanilino)quinoline-5,8-quinone] | 23% | 68% | – |
| Cc1cccc(NC2=CC(=O)c3ncccc3C2=O)c1 [Example 20, 6-(3-methylanilino)quinoline-5,8-quinone] | 69% | – | – |
| O=C1C(Nc2ccccc2C(F)(F)F)=CC(=O)c2ncccc21 [6-(2-trifluoromethylanilino)quinoline-5,8-quinone] | 52% | – | – |
| O=C1C(NC2CC2)=CC(=O)c2ncccc21 [6-cyclopropylaminoquinoline-5,8-quinone] | – | 48% | – |
| O=C1C(N2CCOCC2)=CC(=O)c2ncccc21 [6-morpholinylquinoline-5,8-quinone] | 28% | 63% | – |
| C=CCNC1=CC(=O)c2ncccc2C1=O [6-(2-propenyl)aminoquinoline-5,8-quinone] | 53% | – | – |
| CCCN(C1=CC(=O)c2ncccc2C1=O)c1ccccc1 [6-(N--propylanilino)quinoline-5,8-quinone] | 28% | 39% | – |

| Molecule | inhibition at 10 µM (SRS-A release; [2]) | inhibition at 30 µM (SRS-A release; [3]) | also measured |
| --- | --- | --- | --- |
| O=C1C(Nc2ccccc2)=CC(=O)c2ncccc21 [7,10, 6-anilinoquinoline-5,8-quinone] | – | – | inhibition at 1 µM (SRS-A release): 28%; inhibition at 3 µM (SRS-A release): 54%; inhibition at 10 µM (SRS-A release): 79%; inhibition at 30 µM (SRS-A release): 86% |
| O=C1C(Nc2ccccc2F)=CC(=O)c2ncccc21 [Example 17, 6-(2-flouroanilino)quinoline-5,8-quinone] | 71% | – | inhibition at 1 µM (SRS-A release; [5]): 0% |
| 6-(flouroanilino)quinoline-5,8-quinone [Example 16] | – | – | Percent Inhibition of SRS-A Release (SRS-A release; [2]): 39% |
| O=C1C(NC2CCCCC2)=CC(=O)c2ncccc21 [Example 14, 6-cyclohexylaminoquinoline-5,8-quinone] | 53% | – | inhibition at 1 µM (SRS-A release; [5]): 0% |
| COc1ccc(NC2=CC(=O)c3ncccc3C2=O)cc1 [Example 8, 6-(4-methoxyanilino)quinoline-5,8-quinone] | 32% | – | – |
| O=C1C(Nc2ccccc2Cl)=CC(=O)c2ncccc21 [6-(2-chloroanilino)quinoline-5,8-quinone] | – | 78% | inhibition at 1 µM (SRS-A release; [5]): 24%; inhibition at 3 µM (SRS-A release; [4]): 23% |
| O=C1C(Nc2cccc(F)c2)=CC(=O)c2ncccc21 [Example 19, 6-(3-flouroanilino)quinoline-5,8-quinone] | 76% | 94% | inhibition at 1 µM (SRS-A release; [5]): 13% |
| O=C1C(Nc2ccc([N+](=O)[O-])cc2)=CC(=O)c2ncccc21 [Example 9, 6-(4-nitroanilino)quinoline-5,8-quinone] | 41% | – | – |
| CC(C)NC1=CC(=O)c2ncccc2C1=O [6-isopropylaminoquinoline-5,8-quinone] | – | 28% | – |
| CCN(C1=CC(=O)c2ncccc2C1=O)c1ccccc1 [Example 15, 6-(N--ethylanilino)quinoline-5,8-quinone] | 53% | – | – |
| CN(C1=CC(=O)c2ncccc2C1=O)c1ccccc1 [6-(N--methylanilino)quinoline-5,8-quinone] | 80% | – | inhibition at 1 µM (SRS-A release; [5]): 16%; inhibition at 3 µM (SRS-A release; [4]): 27% |
| CCCN(C)C1=CC(=O)c2ncccc2C1=O [6-methylpropylaminoquinoline-5,8-quinone] | – | – | Percent Inhibition of SRS-A Release (SRS-A release; [3]): 61% |
| O=C1C(Nc2cccc3c2CCCC3)=CC(=O)c2ncccc21 [Example 12, 6-(1-amino-5,6,7,8-tetrahydronaphthalene)quinoline-5,8-quinone] | 23% | – | – |
| CSc1cccc(NC2=CC(=O)c3ncccc3C2=O)c1 [6-(3-methylthioanilino)quinoline-5,8-quinone] | – | 55% | inhibition at 3 µM (SRS-A release; [4]): 16% |
| CN(C)CCNC1=CC(=O)c2ncccc2C1=O [Example 18, 6-dimethylaminoethylaminoquinoline-5,8-quinone] | 40% | – | – |
| O=C1C(N2CCCCC2)=CC(=O)c2ncccc21 [6-piperidinylquinoline-5,8-quinone] | 68% | – | – |
| COc1cccc(NC2=CC(=O)c3ncccc3C2=O)c1 [Example 21, 6-(3-methoxyanilino)quinoline-5,8-quinone] | 72% | – | – |
| C=CCN(C1=CC(=O)c2ncccc2C1=O)c1ccccc1 [6-[N--(2-propenyl)anilino]quinoline-5,8-quinone] | 41% | – | – |
